Measurements as given in ChEMBL document CHEMBL1201862, “PubChem BioAssay data set” (2004).
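Interpolation was linear, between the two tested concentrations surrounding the appropriate level; five concentrations were tested over 48 hours in 96-well plates. Abbreviation: GI50, concentration required for 50% inhibition of growth.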 Active and inactive are the calls of the source. No stated cut-off is given here; in the data, active = GI50 up to about 1.1 µM and inactive = higher.

What was measured:
Test in all cases: NCI anticancer screen, dose series, 48 h
786-0 = system: 786-0
A549 = system: A549
ACHN = system: ACHN
BT-549 = system: BT-549
CAKI-1 = system: CAKI-1
CCRF-CEM = system: CCRF-CEM
COLO 205 = system: COLO 205
DU-145 = system: DU-145
EKVX = system: EKVX
HCC 2998 = system: HCC 2998
HCT-116 = system: HCT-116
HCT-15 = system: HCT-15
HL-60 = system: HL-60
HOP-62 = system: HOP-62
HOP-92 = system: HOP-92
HT-29 = system: HT-29
Hs-578T = system: Hs-578T
IGROV-1 = system: IGROV-1
K562 = system: K562
KM12 = system: KM12
LOX IMVI = system: LOX IMVI
M14 = system: M14
MCF7 = system: MCF7
MDA-MB-231 = system: MDA-MB-231
MDA-MB-435 = system: MDA-MB-435
MDA-N = system: MDA-N
MOLT-4 = system: MOLT-4
Malme-3M = system: Malme-3M
NCI-H226 = system: NCI-H226
NCI-H23 = system: NCI-H23
NCI-H460 = system: NCI-H460
NCI-H522 = system: NCI-H522
NCI/ADR-RES = system: NCI/ADR-RES
OVCAR-3 = system: OVCAR-3
OVCAR-4 = system: OVCAR-4
OVCAR-5 = system: OVCAR-5
OVCAR-8 = system: OVCAR-8
PC-3 = system: PC-3
RPMI-8226 = system: RPMI-8226
RXF 393 = system: RXF 393
SF-268 = system: SF-268
SF-295 = system: SF-295
SF-539 = system: SF-539
SK-MEL-28 = system: SK-MEL-28
SK-MEL-2 = system: SK-MEL-2
SK-MEL-5 = system: SK-MEL-5
SK-OV-3 = system: SK-OV-3
SN12C = system: SN12C
SNB-19 = system: SNB-19
SNB-75 = system: SNB-75
SR = system: SR
SW-620 = system: SW-620
T47D = system: T47D
TK-10 = system: TK-10
U-251 = system: U-251
UACC-257 = system: UACC-257
UACC-62 = system: UACC-62
UO-31 = system: UO-31

Structure (SMILES): Cc1cc(=O)n2nc(CSc3nnc(S)s3)sc2n1
- GI50 (786-0): > 100 µM (inactive)
- GI50 (A549): > 100 µM (inactive)
- GI50 (ACHN): > 100 µM (inactive)
- GI50 (BT-549): > 100 µM (inactive)
- GI50 (CAKI-1): > 100 µM (inactive)
- GI50 (CCRF-CEM): > 100 µM (inactive)
- GI50 (COLO 205): > 100 µM (inactive)
- GI50 (DU-145): > 100 µM (inactive)
- GI50 (EKVX): > 100 µM (inactive)
- GI50 (HCC 2998): > 100 µM (inactive)
- GI50 (HCT-116): > 100 µM (inactive)
- GI50 (HCT-15): > 100 µM
- GI50 (HL-60): > 100 µM (inactive)
- GI50 (HOP-62): > 100 µM (inactive)
- GI50 (HOP-92): > 100 µM (inactive)
- GI50 (HT-29): > 100 µM (inactive)
- GI50 (Hs-578T): > 100 µM (inactive)
- GI50 (IGROV-1): > 100 µM (inactive)
- GI50 (K562): > 100 µM (inactive)
- GI50 (KM12): > 100 µM (inactive)
- GI50 (LOX IMVI): > 100 µM (inactive)
- GI50 (M14): > 100 µM (inactive)
- GI50 (MCF7): > 100 µM (inactive)
- GI50 (MDA-MB-231): > 100 µM (inactive)
- GI50 (MDA-MB-435): > 100 µM (inactive)
- GI50 (MDA-N): > 100 µM (inactive)
- GI50 (MOLT-4): > 100 µM (inactive)
- GI50 (Malme-3M): > 100 µM (inactive)
- GI50 (NCI-H226): > 100 µM (inactive)
- GI50 (NCI-H23): > 100 µM (inactive)
- GI50 (NCI-H460): > 100 µM (inactive)
- GI50 (NCI-H522): > 100 µM (inactive)
- GI50 (NCI/ADR-RES): > 100 µM (inactive)
- GI50 (OVCAR-3): > 100 µM (inactive)
- GI50 (OVCAR-4): > 100 µM (inactive)
- GI50 (OVCAR-5): > 100 µM (inactive)
- GI50 (OVCAR-8): > 100 µM (inactive)
- GI50 (PC-3): > 100 µM (inactive)
- GI50 (RPMI-8226): > 100 µM (inactive)
- GI50 (RXF 393): > 100 µM (inactive)
- GI50 (SF-268): > 100 µM (inactive)
- GI50 (SF-295): > 100 µM (inactive)
- GI50 (SF-539): > 100 µM (inactive)
- GI50 (SK-MEL-28): > 100 µM (inactive)
- GI50 (SK-MEL-2): > 100 µM (inactive)
- GI50 (SK-MEL-5): > 100 µM (inactive)
- GI50 (SK-OV-3): > 100 µM (inactive)
- GI50 (SN12C): > 100 µM (inactive)
- GI50 (SNB-19): > 100 µM (inactive)
- GI50 (SNB-75): > 100 µM (inactive)
- GI50 (SR): > 100 µM (inactive)
- GI50 (SW-620): > 100 µM (inactive)
- GI50 (T47D): > 100 µM (inactive)
- GI50 (TK-10): > 100 µM (inactive)
- GI50 (U-251): > 100 µM (inactive)
- GI50 (UACC-257): > 100 µM (inactive)
- GI50 (UACC-62): > 100 µM (inactive)
- GI50 (UO-31): > 100 µM (inactive)
